For 46 molecules, EC50 results are on record in patent US20130096141A1, “BICYCLIC HETEROCYCLE DERIVATIVES AND METHODS OF USE THEREOF” (priority 2010, published 2013).

pEC50: −log10 of the molar value.

This test has as its target T1, GPR119 receptor (Homo sapiens, UniProt Q8TDV5).
T1 construct: expressed in transfected cells
T1 sequence (Q8TDV5 1-335): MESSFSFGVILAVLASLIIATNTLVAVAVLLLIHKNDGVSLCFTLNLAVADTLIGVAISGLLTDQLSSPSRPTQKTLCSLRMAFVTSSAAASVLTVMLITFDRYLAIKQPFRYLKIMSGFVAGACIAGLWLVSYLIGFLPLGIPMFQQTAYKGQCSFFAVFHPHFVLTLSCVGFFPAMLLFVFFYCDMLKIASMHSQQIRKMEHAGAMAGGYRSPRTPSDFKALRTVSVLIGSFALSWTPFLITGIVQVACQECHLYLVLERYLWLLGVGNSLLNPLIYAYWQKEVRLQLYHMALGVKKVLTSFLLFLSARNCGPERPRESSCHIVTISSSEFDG
Kind of test: cAMP assay in cells transfected with the GPR119 receptor (human). It is filed as cell-based. To be noted: increase in intracellular cAMP, read-out: h-cAMP EC50. As to the method:
The activity of these compounds may be assayed in cells transfected the GPR119 receptor (human, mouse, rat or monkey). Incubation with the above compounds results in an increase in intracellular cAMP, from which an EC50 value may be calculated. Ki values for compounds at this receptor can be determined by employing a radio-labeled agonist. In vivo activity can be determined by conducting an oral glucose-tolerance test in an appropriate species, such as mouse.
For orientation: cAMP levels reflect the balance of adenylyl cyclase and phosphodiesterase activity.
On to `CS(=O)(=O)c1ccc(-c2c[nH]c3c(OC4C5COCC4CN(c4ncc(Cl)cn4)C5)ncnc23)c(F)c1` (stereo not shown) [Example 16], for which the pEC50 – broadly, the EC50 on a negative log10 scale, so that one unit is a factor of ten – is 6.61. As to `CS(=O)(=O)c1ccc(-c2csc3c(OC4C5COCC4CN(CC(F)(F)C(F)(F)F)C5)ncnc23)c(F)c1` (stereo not shown) [Example 33], the negative logarithm of the EC50 (pEC50) was 9.00. As for `N#Cc1ccc(-c2csc3c(OC4C5COCC4CN(CC(F)(F)C(F)(F)F)C5)ncnc23)c(F)c1` (stereo not shown) [Example 37], the negative-log EC50 (pEC50) is 8.80. As for `COc1ccc(-c2csc3c(OC4C5COCC4CN(C(=O)OC4(C)CC4)C5)ncnc23)c(Cl)c1` (stereo not shown) [Example 38], the pEC50 is 9.36. The result for `CS(=O)(=O)c1ccc(-c2csc3c(OC4C5COCC4CN(c4ncc(Cl)cn4)C5)ncnc23)c(F)c1` (stereo not shown) [Example 4] reads 7.64. On to `COc1ccc(-c2csc3c(OC4C5COCC4CN(C(=O)OC4(C)CC4)C5)ncnc23)c(F)c1` (stereo not shown) [Example 23], for which the pEC50 was 8.96. Next, `COc1ccc(-c2csc3c(OC4C5COCC4CN(c4ncc(Cl)cn4)C5)ncnc23)c(F)c1` (stereo not shown) [Example 28]: 8.68; `CC1(OC(=O)N2CC3COCC(C2)C3Oc2ncnc3c(-c4ccc(S(C)(=O)=O)cc4)csc23)CC1` (stereo not shown) [Example 50]: 8.66.

Regarding `CS(=O)(=O)c1ccc(-c2csc3c(OC4C5COCC4CN(c4ncc(F)cn4)C5)ncnc23)c(F)c1` (stereo not shown) [Example 7], the pEC50 is 7.33.

`CC(C)(C)OC(=O)N1CC2COCC(C1)C2Oc1ncnc2c(-c3ccc(C#N)cc3Cl)csc12` (stereo not shown) [Example 9]: the negative logarithm of the EC50 (pEC50) was 7.33. The result for `CC(C)(C)OC(=O)N1CC2COCC(C1)C2Oc1ncnc2c(-c3ccc(S(C)(=O)=O)cc3F)csc12` (stereo not shown) [Example 2] reads 7.21. In the case of `CC1(OC(=O)N2CC3COCC(C2)C3Oc2ncnc3c(-c4ncc(F)cc4F)csc23)CC1` (stereo not shown) [Example 40], the negative-log EC50 (pEC50) is 9.29.

With `Fc1ccc(-c2csc3c(OC4C5COCC4CN(CC(F)(F)C(F)(F)F)C5)ncnc23)c(F)c1` (stereo not shown) [Example 34], the pEC50 was 7.14.

Consider `Cc1ccc(-c2csc3c(OC4C5COCC4CN(C(=O)OC4(C)CC4)C5)ncnc23)c(F)c1` (stereo not shown) [Example 39], for which the negative-log EC50 (pEC50) was 9.44. On to `CC(C)(C)OC(=O)N1CC2COCC(C1)C2Oc1ncnc2c(-c3ccc(C#N)cc3F)csc12` (stereo not shown) [Example 1], for which the negative logarithm of the EC50 (pEC50) is 8.10. As to `CC1(OC(=O)N2CC3COCC(C2)C3Oc2ncnc3c(-c4ccc(C#N)cc4F)csc23)CC1` (stereo not shown) [Example 3], the negative-log EC50 (pEC50) was 8.05. As to `COC(=O)COc1ccc(-c2csc3c(OC4C5COCC4CN(C(=O)OC4(C)CC4)C5)ncnc23)c(F)c1` (stereo not shown) [Example 46], the pEC50 is 8.60. Next, `CC(C)(C)OC(=O)N1CC2COCC(C1)C2Oc1ncnc2c(-c3ccc(F)cc3F)csc12` (stereo not shown) [Example 5]: 7.74; `CCS(=O)(=O)c1ccc(-c2csc3c(OC4C5COCC4CN(C(=O)OC4(C)CC4)C5)ncnc23)cc1` (stereo not shown) [Example 43]: 9.42; `CC1(OC(=O)N2CC3COCC(C2)C3Oc2ncnc3c(-c4ccc(OCCO)cc4F)csc23)CC1` (stereo not shown) [Example 51]: 9.19. In the case of `N#Cc1ccc(-c2csc3c(OC4C5COCC4CN(CC(F)(F)C(F)(F)F)C5)ncnc23)c(Cl)c1` (stereo not shown) [Example 36], the pEC50 is 7.46.

On to `CC1(OC(=O)N2CC3COCC(C2)C3Oc2ncnc3c(-c4ccc(S(C)(=O)=O)cc4F)csc23)CC1` (stereo not shown) [Example 41], for which the negative-log EC50 (pEC50) is 9.33. Next, `CC1(OC(=O)N2CC3COCC(C2)C3Oc2ncnc3c(-c4ccc(F)cc4Cl)csc23)CC1` (stereo not shown) [Example 45]: 10.00; `CC1(OC(=O)N2CC3COCC(C2)C3Oc2ncnc3c(-c4ccc(F)cc4C#N)csc23)CC1` (stereo not shown) [Example 24]: 8.92. Consider `CC(C)(O)COc1ccc(-c2csc3c(OC4C5COCC4CN(C(=O)OC4(C)CC4)C5)ncnc23)c(F)c1` (stereo not shown) [Example 52], for which the negative logarithm of the EC50 (pEC50) was 9.30. The result for `CC1(OC(=O)N2CC3COCC(C2)C3Oc2ncnc3c(-c4ccc(C(=O)C5CC5)cc4Cl)csc23)CC1` (stereo not shown) [Example 12] reads 7.07; that for `Cn1cc(-c2ccc(S(C)(=O)=O)cc2F)c2ncnc(OC3C4COCC3CN(c3ncc(Cl)cn3)C4)c21` (stereo not shown) [Example 21], 8.28.

For the molecule `CC1(OC(=O)N2CC3COCC(C2)C3Oc2ncnc3c(-c4ccc(C#N)cc4)csc23)CC1` (stereo not shown) [Example 47], the negative-log EC50 (pEC50) is 9.00.

Take `CC1(OC(=O)N2CC3COCC(C2)C3Oc2ncnc3c(-c4ccc(O)cc4F)csc23)CC1` (stereo not shown) [Example 44]: the pEC50 is 9.00. As to `CCCc1cnc(N2CC3COCC(C2)C3Oc2ncnc3c(-c4ccc(S(C)(=O)=O)cc4F)csc23)nc1` (stereo not shown) [Example 8], the pEC50 was 6.82. Consider `CC1(OC(=O)N2CC3COCC(C2)C3Oc2ncnc3c(-c4ccc(Cl)cc4F)csc23)CC1` (stereo not shown) [Example 22], for which the negative-log EC50 (pEC50) is 8.70.

On to `COc1ccc(-c2csc3c(OC4C5COCC4CN(CC(F)(F)C(F)(F)F)C5)ncnc23)c(F)c1` (stereo not shown) [Example 35], for which the pEC50 is 7.35.

As to `CC1(OC(=O)N2CC3COCC(C2)C3Oc2ncnc3c(-c4ccc(F)c(CO)c4F)csc23)CC1` (stereo not shown) [Example 48], the negative logarithm of the EC50 (pEC50) is 8.85. Take `CC1(OC(=O)N2CC3COCC(C2)C3Oc2ncnc3c(-c4ccc(C#N)cc4Cl)csc23)CC1` (stereo not shown) [Example 10]: the pEC50 was 7.62. The result for `COc1ccc(-c2csc3c(OC4C5COCC4CN(C(=O)OC(C)C)C5)ncnc23)c(F)c1` (stereo not shown) [Example 27] reads 9.12; that for `Cn1cc(-c2ccc(F)cc2F)c2ncnc(OC3C4COCC3CN(C(=O)OC3(C)CC3)C4)c21` (stereo not shown) [Example 31], 8.08; that for `COCc1ccc(-c2csc3c(OC4C5COCC4CN(C(=O)OC4(C)CC4)C5)ncnc23)c(F)c1` (stereo not shown) [Example 30], 9.13. Next, `Cn1cc(-c2ccc(C#N)cc2F)c2ncnc(OC3C4COCC3CN(C(=O)OC3(C)CC3)C4)c21` (stereo not shown) [Example 17]: 7.89. For `N#Cc1ccc(-c2csc3c(OC4C5COCC4CN(c4ncc(Cl)cn4)C5)ncnc23)c(Cl)c1` (stereo not shown) [Example 11], the pEC50 is 7.74. Next, `CC1(OC(=O)N2CC3COCC(C2)C3Oc2ncnc3c(-c4ccc(C#N)cc4F)c[nH]c23)CC1` (stereo not shown) [Example 14]: 6.53; `CC1(OC(=O)N2CC3COCC(C2)C3Oc2ncnc3c(-c4ccc(F)cc4F)csc23)CC1` (stereo not shown) [Example 6]: 7.80; `Cn1cc(-c2ccc(S(C)(=O)=O)cc2F)c2ncnc(OC3C4COCC3CN(C(=O)OC3(C)CC3)C4)c21` (stereo not shown) [Example 42]: 9.00.

As to `Cc1c(F)ccc(-c2csc3c(OC4C5COCC4CN(C(=O)OC4(C)CC4)C5)ncnc23)c1F` (stereo not shown) [Example 49], the pEC50 is 8.77. The result for `COc1ccc(-c2cn(C)c3c(OC4C5COCC4CN(C(=O)OC4(C)CC4)C5)ncnc23)c(F)c1` (stereo not shown) [Example 32] reads 8.24. As for `COC(=O)c1ccc(-c2csc3c(OC4C5COCC4CN(C(=O)OC4(C)CC4)C5)ncnc23)c(F)c1` (stereo not shown) [Example 25], the negative logarithm of the EC50 (pEC50) is 9.34. As to `CC1(OC(=O)N2CC3COCC(C2)C3Oc2ncnc3c(-c4ccc(CO)cc4F)csc23)CC1` (stereo not shown) [Example 29], the negative-log EC50 (pEC50) was 9.32.
